The source of these data is patent publication US20070122341A1, “Benzylideneaniline derivatives and their radioisotope labeled compounds for binding and imaging of beta-amyloid plaques” (SEOUL NATIONAL UNIVERSITY INDUSTRY FOUNDATION, priority 2005, published 2007).

A word on the Ki: it is the dissociation constant of the complex between target and ligand, obtained from inhibition or displacement. What is called melting point is the temperature, or range, at which the solid turns liquid.

For series [1], the target named is T1, Aβ1-40 aggregates (Homo sapiens, UniProt P05067).
T1 construct: purchased Sigma
Nature of the series: In vitro binding assay with Aβ1-40 aggregates, inhibition of [125I]3'-I-BTA-1 binding. The conditions noted are these: for affinity to Aβ1-40 (in words): conclusion from Ki values of Table 2; for Ki: unlabeled compounds, Aβ1-40 aggregates 20 nM, [125I]3'-I-BTA-1 0.04 nM, 3 hr room temperature, Ki calculated from IC50. How it is done: Aggregated peptides were prepared using the solid form of peptides Aβ1-40 (purchased from Sigma) by a literature method (Klunk, W. E.; Wang, Y.; Huang, G-F.; Debnath, M. L.; Holt D. P.; Mathis, C. A. Uncharged thioflavin-T derivatives bind to amyloid-beta protein with high affinity and readily enter the brain. Life Sci. 2001, 69(13), […]). The aggregated Aβ1-40 peptide was aliquoted and stored at −70° C. Binding studies were performed according to the procedure described in the literature with some modifications (Zhuang, Z.-P.; Kung, M.-P.; Wilson, A.; Lee, C.-W.; Plossl, K.; Hou, C.; Holtzman, D. M.; Kung, H. F.; Structure-activity relationship of imidazo[1,2-a]pyridines as ligands for detecting β-amyloid plaques in the brain. J. Med. Chem. 2003; 46(2), 237-243). The Ki values of benzylideneaniline derivatives were evaluated with Aβ1-40 aggregates.
The reaction mixtures containing 100 μL of Aβ^1-40 aggregates (20 nM in the final mixture), 100 μL of benzylideneaniline derivatives (10^−5-10^−10 M in 50% ethanol), 100 μL of [^125I]3′-I-BTA-1 in 50% ethanol (0.04 nM in the final mixture), and 700 μL of phosphate buffered saline (pH=7.2) were incubated for 3 hr at room temperature, filtered through Whatman GF/B glass filters and washed twice with 3 mL of 10% EtOH. The filters were counted in a gamma-counter. Nonspecific binding was determined by reacting in the presence of 10 μM stilbene.

The nature of series [2]: Biodistribution in normal mice. Type of series: in vivo. The following applies: 18F-labeled compounds, tail vein injection, ICR male mice; ratio of brain uptake (% ID/g) at 2 min over 30 min. Here is the method: Biodistribution study of the ^18F-labeled compounds of Example 7 was performed with ICR male mice (weight range 27-28 g). 0.1 mL of a saline solution containing each ^18F-labeled benzylideneaniline compound A, B, C, D, E or F (37-74 kBq) was injected through the tail vein. The mice were sacrificed by decapitation at 2 min and 30 min time points post injection. The organs of interest, including blood, muscle, fat, heart, lung, liver, spleen, stomach, intestine, brain and bone, were separated and weighed, and the remaining radioactivity was counted with a NaI well counter.

The structures appear in SMILES notation. Where “and” joins values, the source holds several entries; their conditions need not be identical. Equal values may be shown once.

T1 sequence (P05067 672-711): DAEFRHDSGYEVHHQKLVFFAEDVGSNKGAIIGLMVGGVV

Compound `CNc1ccc(/N=C/c2ccc(F)cc2)cc1` [B, N-(4-fluorobenzylidene)-N′-methylbenzene-1,4-diamine] had a melting point of 106 to 107 °C. Besides, in series [1], the “affinity to Aβ1-40 (in words)” value is “have affinity to Aβ1-40” and the Ki was 1040 nM. In series [2], the Brain uptake ratio is 5.4 ± 0.5.
Consider `CN(C)c1ccc(/N=C/c2ccc(F)cc2)cc1` [C, N-(4-fluorobenzylidene)-N′,N′-dimethylbenzene-1,4-diamine], for which the melting point was in the range of 191 to 192 °C. Further, in series [1], the “affinity to Aβ1-40 (in words)” value is given as “have affinity to Aβ1-40” and the Ki is 149 nM. Besides, in series [2], the Brain uptake ratio was found to be 2.9 ± 0.5.
The matching figures for `Nc1ccc(/N=C/c2ccc(F)cc2)cc1` [Compound A, N-(4-fluorobenzylidene)benzene-1,4-diamine]: 169 to 170 °C, “have affinity to Aβ1-40”, 304 nM and 8.7 ± 1.7.
For `Oc1ccc(/N=C/c2ccc(F)cc2)cc1` [D], the melting point was in the range of 148 to 149 °C. For the same compound, in series [1], the “affinity to Aβ1-40 (in words)” value was “low binging affinity” and the Ki was > 10000 nM. The Brain uptake ratio in series [2] was 24.3 and 24.3 ± 4.6.
Take `COc1ccc(/N=C/c2ccc(F)cc2)cc1` [E, (4-fluorobenzylidene)-(4-methoxyphenyl)amine]: the melting point was in the range of 92 to 93 °C. Moreover, the Ki in series [1] is > 10000 nM. Besides, the Brain uptake ratio in series [2] came to 4.2 ± 0.9.
For `O=C(O)c1cc(/N=C/c2ccc(F)cc2)ccc1O` [F, 5-[(4-fluorobenzylidene)amino]-2-hydroxybenzoic acid], the Ki in series [1] is > 10000 nM. The Brain uptake ratio in series [2] is listed as 11.0 ± 2.0.
